EP0652008A1 (priority 1993, dated 1995)
Read-outs that look alike come from different tables or passages of the source.

Experiments:
[1] = in vivo; cited from earlier work
[2] = patients taking both ciprofloxacin and theophylline; many to the toxic range; cited from earlier work
Francisella tularensis [3] = format: in vivo, BALB/c mice; conditions: for % SURVIVALS AT DAY 14 POST INFECTION: single dose 1 mg per mouse
Francisella tularensis [4] = format: in vivo, BALB/c mice; conditions: for % SURVIVALS AT DAY 14 POST INFECTION: single dose

Compound	bioavailability rates [1]	patients who developed increases of theophylline [2]	% SURVIVALS AT DAY 14 POST INFECTION (Francisella tularensis [3]; INTRANSAL pretreatment and infection, 1 day before infection)	% SURVIVALS AT DAY 14 POST INFECTION (Francisella tularensis [3]; INTRANSAL pretreatment and infection, 2 days before infection)	% SURVIVALS AT DAY 14 POST INFECTION (Francisella tularensis [3]; INTRANSAL pretreatment and infection, 3 days before infection)	% SURVIVALS AT DAY 14 POST INFECTION (Francisella tularensis [3]; INTRANSAL pretreatment and infection, 7 days before infection)	% SURVIVALS AT DAY 14 POST INFECTION (Francisella tularensis [3]; INTRAVENOUS pretreatment and infection, 1 day before infection)	% SURVIVALS AT DAY 14 POST INFECTION (Francisella tularensis [3]; INTRAVENOUS pretreatment and infection, 2 days before infection)	% SURVIVALS AT DAY 14 POST INFECTION (Francisella tularensis [3]; INTRAVENOUS pretreatment and infection, 3 days before infection)	% SURVIVALS AT DAY 14 POST INFECTION (Francisella tularensis [3]; INTRAVENOUS pretreatment and infection, 7 days before infection)	protection by single dose before infection (in words) (Francisella tularensis [3]; single dose before infection with 10 LD50)	% SURVIVALS AT DAY 14 POST INFECTION (Francisella tularensis [4]; INTRANSAL infection and treatment, 1 day after infection)	% SURVIVALS AT DAY 14 POST INFECTION (Francisella tularensis [4]; INTRANSAL infection and treatment, 2 days after infection)	% SURVIVALS AT DAY 14 POST INFECTION (Francisella tularensis [4]; INTRANSAL infection and treatment, 3 days after infection)	% SURVIVALS AT DAY 14 POST INFECTION (Francisella tularensis [4]; INTRANSAL infection and treatment, 7 days after infection)	% SURVIVALS AT DAY 14 POST INFECTION (Francisella tularensis [4]; INTRAVENOUS infection and treatment, 1 day after infection)	% SURVIVALS AT DAY 14 POST INFECTION (Francisella tularensis [4]; INTRAVENOUS infection and treatment, 2 days after infection)	% SURVIVALS AT DAY 14 POST INFECTION (Francisella tularensis [4]; INTRAVENOUS infection and treatment, 3 days after infection)	% SURVIVALS AT DAY 14 POST INFECTION (Francisella tularensis [4]; INTRAVENOUS infection and treatment, 7 days after infection)	efficacy in the treatment of infected mice (in words) (Francisella tularensis [4]; single dose at day 1, 2, 3 and 7 post infection)
CC1(C)S[C@@H]2[C@H](NC(=O)Cc3ccccc3)C(=O)N2[C@H]1C(=O)O [penicillin G]	45-50%	–	–	–	–	–	–	–	–	–	–	–	–	–	–	–	–	–	–	–
O=C(O)c1cn(C2CC2)c2cc(N3CCNCC3)c(F)cc2c1=O [Ciprofloxacin, ciprofloxacin]	–	20 of 33	0%	0%	0%	12%	8%	0%	12%	0%	succumbed to 10 LD₅₀ of tularemia in a manner similar to the control untreated mice	50%	0%	25%	0%	0%	25%	0%	12%	totally ineffective
